Data reported in US6512000B1, “Aminocarbonyl-substituted benzimidazoles having tryptase-inhibitory activity” (Boehringer Ingelheim Pharma KG, priority 1999, dated 2003).
Structures can show the parent of a compound that is named as a salt.

Target: T1, rh beta tryptase (Homo sapiens, UniProt P20231)
T1 construct: purchased Promega
Assay: Tryptase inhibition test (cleavage of N-p-tosyl-Gly-Pro-Lys-para-nitroaniline, p-nitroaniline measured at 405 nm)
Type: biochemical
Conditions: pH 7.4, 37° C.; for % Inhibition (10 μM) / inhibition at 10 µM: inhibition of rh beta tryptase at 10 μM test substance, substrate N-p-tosyl-Gly-Pro-Lys-para-nitroaniline 0.6 mM, 5 minutes; for IC50: concentration at which 50% of the tryptase enzyme activity is inhibited, substrate 0.6 mM
Procedure: The compounds according to the invention are characterised by their tryptase-inhibiting activity. This ability to inhibit tryptase was investigated using the test described below.
The measurement is carried out in Tris HCl buffer (100 mM), which additionally contains calcium (5 mM) and heparin ([…]), at pH 7.4. The standard used is rh beta tryptase which may be obtained commercially from Promega, for example. The substrate used is N-p-tosyl-Gly-Pro-Lys-para-nitroaniline in a concentration of 0.6 mM. The substrate is digested with tryptase to form p-nitroaniline which can be measured at 405 nm. Usually, an incubation period of 5 minutes and an incubation temperature of 37° C. are chosen. The enzyme activity used is 0.91 U/ml. The measurements are carried out in an Autoanalyser (Cobas Bio) made by Hofmann LaRoche. The potential inhibitory substances are used in concentrations of 10 μM in the screening, the inhibition of the tryptase being given in percent. The IC50 is determined at over 70% inhibition (concentration at which 50% of the enzyme activity is inhibited). After 5 minutes' pre-incubation of the potential inhibitory substances, the substrate is added to start the reaction, the formation of p-nitroaniline being taken as a measurement of the enzyme activity after 5 minutes, after testing the linearity.
The data obtained after the above test has been carried out (% inhibition) are assembled in Table 25 for the compounds according to the invention. The IC50 values obtained for the compounds according to the invention can be found in Table 26.
Table 26 contains the IC50 binding values obtained for the compounds according to the invention. These were measured as described above.

T1 sequence (P20231 31-275): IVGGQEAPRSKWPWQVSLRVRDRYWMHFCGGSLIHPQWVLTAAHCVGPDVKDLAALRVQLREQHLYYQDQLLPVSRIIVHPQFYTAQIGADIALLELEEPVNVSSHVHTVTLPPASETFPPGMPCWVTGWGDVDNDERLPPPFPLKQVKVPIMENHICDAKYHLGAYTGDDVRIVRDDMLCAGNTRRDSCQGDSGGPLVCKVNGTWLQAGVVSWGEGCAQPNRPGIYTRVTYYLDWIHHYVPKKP

Row | % Inhibition (10 μM) [%] | inhibition at 10 µM [%] | IC50 [nM] | Compound
1 | 63 |  |  | 2-[2-(4-amidinophenyl)ethyl]-1-[2-(4-chlorophenyl)ethyl]-benzimidazol-5-yl-carboxylic acid-N-[4-(amino-methyl)-benzyl]-N-(3-pyridyl)-amide [Example 140]
2 |  | 52 |  | Cc1ccccc1N1CCN(CCCn2c(CCc3ccc(C(=N)N)cc3)nc3cc(C(=O)N(CCN)Cc4cccc(C(F)(F)F)c4)ccc32)CC1 [Example 400, 2-[2-(4-amidinophenyl)ethyl]-1-{3-[4-(2-methylphenyl)-piperazin-1-yl]-propyl}-benzimidazol-5-yl-carboxylic acid-N-(2-aminoethyl)-N-(3-trifluoromethylbenzyl)-amide]
3 | 71 |  | 304 | 2-[2-(4-amidinophenyl)ethyl]-1-(3-ethoxypropyl)-benzimidazol-5-yl-carboxylic acid-N-[4-(amino-methyl)-benzyl]-N-(2-pyridyl)-amide [Example 118]
4 |  |  | 153 | CC(C)N(CCC(=N)N)C(=O)c1ccc2c(c1)nc(CCc1ccc(C(=N)N)cc1)n2C [Example 27, 2-[2-(4-Amidinophenyl)-ethyl]-1-methyl-benzimidazol-5-yl-carboxylic Acid-N-(2-amidinoethyl)-N-iso-propyl-amide-dihydrochloride]
5 |  | 62 |  | N=C(N)c1ccc(CCc2nc3cc(C(=O)N(CCN)Cc4ccccc4)ccc3n2CC2CCCO2)cc1 (stereo not shown) [Example 306, 2-[2-(4-amidinophenyl)ethyl]-1-(tetrahydrofuran-2-yl-methyl)-benzimidazol-5-yl-carboxylic acid-N-(2-aminoethyl)-N-benzyl-amide]
6 | 69 |  | 231 | 2-[2-(4-amidinophenyl)ethyl]-1-(3-ethoxypropyl)-benzimidazol-5-yl-carboxylic acid-N-[4-(amino-methyl)-benzyl]-N-(3-pyridyl)-amide [Example 134]
7 |  | 51 |  | Cc1ccc(Cn2c(CCc3ccc(C(=N)N)cc3)nc3cc(C(=O)N(CCCc4ccccc4)Cc4ccc(CN)cc4)ccc32)cc1 [Example 173, 2-[2-(4-amidinophenyl)ethyl]-1-(4-methylbenzyl)-benzimidazol-5-yl-carboxylic acid-N-[4-(amino-methyl)-benzyl]-N-(3-phenylpropyl)-amide]
8 | 61 |  | 771 | 2-[2-(4-amidinophenyl)ethyl]-1-cyclopropylmethyl-benzimidazol-5-yl-carboxylic acid-N-(2-aminoethyl)-N-(2-pyridyl)-amide [Example 314]
9 |  | 53 |  | N=C(N)c1ccc(CCc2nc3cc(C(=O)N(Cc4ccc(CN)cc4)Cc4cccc(C(F)(F)F)c4)ccc3n2CCc2ccccc2)cc1 [Example 203, 2-[2-(4-amidinophenyl)ethyl]-1-(2-phenylethyl)-benzimidazol-5-yl-carboxylic acid-N-[4-(amino-methyl)-benzyl]-N-(3-trifluoromethylbenzyl)-amide]
10 |  | 51 |  | N=C(N)c1ccc(CCc2nc3cc(C(=O)N(CCCc4ccccc4)Cc4ccc(CN)cc4)ccc3n2CC2CCCO2)cc1 (stereo not shown) [Example 178, 2-[2-(4-amidinophenyl)ethyl]-1-(tetrahydrofuran-2-yl-methyl)-benzimidazol-5-yl-carboxylic acid-N-[4-(amino-methyl)-benzyl]-N-(3-phenylpropyl)-amide]
11 |  | 55 |  | CCCCN(Cc1ccc(CN)cc1)C(=O)c1ccc2c(c1)nc(CCc1ccc(C(=N)N)cc1)n2CCCN1CCN(c2ccccc2C)CC1 [Example 96, 2-[2-(4-amidinophenyl)ethyl]-1-{3-[4-(2-methylphenyl)-piperazin-1-yl]-propyl}-benzimidazol-5-yl-carboxylic acid-N-[4-(amino-methyl)-benzyl]-N-n-butyl-amide]
12 |  | 57 | 274 | CCOCCCn1c(CCc2ccc(C(=N)N)cc2)nc2cc(C(=O)N(CCCc3ccccc3)Cc3ccc(CN)cc3)ccc21 [Example 166, 2-[2-(4-amidinophenyl)ethyl]-1-(3-ethoxypropyl)-benzimidazol-5-yl-carboxylic acid-N-[4-(amino-methyl)-benzyl]-N-(3-phenylpropyl)-amide]
